In test [1] the test system is healthy donor T cells (PBMCs) and NK cells. The test can be described thus: CFSE proliferation assay with exogenous adenosine. Particulars: higher concentration further restoring proliferation, data not shown. Type of test: cell-based, human.
For test [2], the system named is healthy donor T cells in MPNST patient-derived sarcoma spheroid. The test is described as follows: Proliferation assay with CD73-expressing patient-derived sarcoma (MPNST) spheroid. The class given is cell-based, human. The conditions noted are these: antagonist 12 µM, 3 days, endogenous adenosine, n=5 healthy donors. As for the experimental part: A malignant peripheral nerve sheath tumor (MPNST) patient-derived sarcoma cell line was used to grow spheroid by seeding 1×10^4 cells per well in a 96-well ultra-low attachment plate (Thermo Fisher Scientific) with DMEM-F12 media containing 20% FBS and 1% PS for 5 days. 1×10^5 CSFE-labeled healthy PBMCs, ratio of 10:1, were added to the CD73 expressing, adenosine-producing spheroid at day five. Similar to the proliferation assay with exogenous ADO, CD3/CD28 beads at 1:4 ratio and IL-2 at 100 IU/mL were added. A2BAR antagonism treatment at 12 μM was added at the same day.
Figure 5 Rescue of lymphocyte proliferation in sarcoma spheroids by A2BAR antagonism. Relative proliferation of: (A) CD45RA- CD4 T cells, (B) CD45RA+CD4 T cells, (C) CD45RA- CD8 T cells and (D) CD45RA+ CD8 T cells after antagonist 12 µM treatment for 3 days in MPNST patient-derived sarcoma spheroid. (n=5 healthy donors) Box plots with minimum, first quartile, median, third quartile, and maximum are presented. Unpaired and non-parametric statistical analysis—Mann-Whitney test was performed against untreated control with *p<0.05, **p<0.01, ***p<0.001, and ****p<0.0001. (E) Representative CSFE dilution of CD45RA+ CD8 T cells. CD45RA expression differentiates naïve and effector T cells from central and effector memory T cells. MPNST, malignant peripheral nerve sheath tumors; UPS, undifferentiated pleomorphic sarcoma.

Turning to `CC1=C(C(=O)OC(C)C)C(c2ccco2)n2c(nc3ccccc32)N1` (centres unmarked) [ISAM-140, isopropyl 4-(furan-2-yl)−2-methyl-1,4-dihydrobenzo[4 5] imidazo[1,2 a]pyrimidine-3-carboxylate], the “Dose dependence of the proliferation rescue on T and NK cells” value in test [1] is reported as “dose-dependent”. `CC1=C(C(=O)OC(C)C)C(c2ccco2)n2c(nc3ccccc32)N1Cc1ccccc1F` (centres unmarked) [ISAM-R56A]: the “Rescue of naïve and effector (CD45RA+) CD8 T cell proliferation in adenosine-producing sarcoma spheroids” value in test [2] is on record as “significantly rescued”.

The record behind these values is PMC9115112, “A2B adenosine receptor antagonists rescue lymphocyte activity in adenosine-producing patient-derived cancer models” (Journal for Immunotherapy of Cancer, 2022).
